From article PMC2934701 (The Journal of Biological Chemistry, 2010)
Changes are numbered by the printed parent chain.

Columns and labels:
Assay in all cases: Fluo-4 calcium assay, HEK293T + Galpha16gust44
Assay type in all cases: cell-based
hTAS2R16 (ssr3-hTAS2R16) [1] = target: T1, hTAS2R16 (ssr3-hTAS2R16) (Homo sapiens, UniProt Q9NYV7, Q177N)
T1 sequence (Q9NYV7 1-291 Q177N): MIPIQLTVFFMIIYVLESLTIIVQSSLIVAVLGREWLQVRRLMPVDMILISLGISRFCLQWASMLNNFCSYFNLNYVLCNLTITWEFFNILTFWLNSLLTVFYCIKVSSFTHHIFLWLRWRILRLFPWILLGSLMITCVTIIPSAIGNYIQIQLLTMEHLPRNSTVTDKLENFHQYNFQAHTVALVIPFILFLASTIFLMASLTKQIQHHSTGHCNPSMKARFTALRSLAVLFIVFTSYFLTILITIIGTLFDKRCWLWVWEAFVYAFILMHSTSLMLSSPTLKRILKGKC

hTAS2R16 (ssr3-hTAS2R16) [2] = target: T2, hTAS2R16 (ssr3-hTAS2R16) (Homo sapiens, UniProt Q9NYV7, E86D)
T2 sequence (Q9NYV7 1-291 E86D): T1 sequence (Q9NYV7 1-291 Q177N) with E86D, N177Q

hTAS2R16 (ssr3-hTAS2R16) [3] = target: T3, hTAS2R16 (ssr3-hTAS2R16) (Homo sapiens, UniProt Q9NYV7, I243A)
T3 sequence (Q9NYV7 1-291 I243A): T1 sequence (Q9NYV7 1-291 Q177N) with N177Q, I243A

hTAS2R16 (ssr3-hTAS2R16) [4] = target: T4, hTAS2R16 (ssr3-hTAS2R16) (Homo sapiens, UniProt Q9NYV7)
T4 sequence (Q9NYV7 1-291): T1 sequence (Q9NYV7 1-291 Q177N) with N177Q

hTAS2R16 (ssr3-hTAS2R16) [5] = target: T5, hTAS2R16 (ssr3-hTAS2R16) (Homo sapiens, UniProt Q9NYV7, I243V)
T5 sequence (Q9NYV7 1-291 I243V): T1 sequence (Q9NYV7 1-291 Q177N) with N177Q, I243V

hTAS2R16 (ssr3-hTAS2R16) [6] = target: T6, hTAS2R16 (ssr3-hTAS2R16) (Homo sapiens, UniProt Q9NYV7, E86Q)
T6 sequence (Q9NYV7 1-291 E86Q): T1 sequence (Q9NYV7 1-291 Q177N) with E86Q, N177Q

hTAS2R16 (ssr3-hTAS2R16) [7] = target: T7, hTAS2R16 (ssr3-hTAS2R16) (Homo sapiens, UniProt Q9NYV7, F93Y)
T7 sequence (Q9NYV7 1-291 F93Y): T1 sequence (Q9NYV7 1-291 Q177N) with F93Y, N177Q

hTAS2R16 (ssr3-hTAS2R16) [8] = target: T8, hTAS2R16 (ssr3-hTAS2R16) (Homo sapiens, UniProt Q9NYV7, H181L)
T8 sequence (Q9NYV7 1-291 H181L): T1 sequence (Q9NYV7 1-291 Q177N) with N177Q, H181L

Q: With `OCc1ccccc1O[C@@H]1O[C@H](CO)[C@@H](O)[C@H](O)[C@H]1O` [salicin] as the molecule, how does the EC50 (hTAS2R16 (ssr3-hTAS2R16) [1]) read?
A: 390 µM

Q: And the EC50 (hTAS2R16 (ssr3-hTAS2R16) [2])?
A: 2130 µM

Q: What about the EC50 (hTAS2R16 (ssr3-hTAS2R16) [3]) of the same molecule?
A: > 30000 µM

Q: And the EC50 (hTAS2R16 (ssr3-hTAS2R16) [4])?
A: 220 µM

Q: What about the EC50 (hTAS2R16 (ssr3-hTAS2R16) [5]) of the same molecule?
A: 840 µM

Q: What about the EC50 (hTAS2R16 (ssr3-hTAS2R16) [6]) of the same molecule?
A: 1250 µM

Q: And the EC50 (hTAS2R16 (ssr3-hTAS2R16) [7])?
A: 10000 µM

Q: And the EC50 (hTAS2R16 (ssr3-hTAS2R16) [8])?
A: 12900 µM
